# Values quoted from earlier work in patent US20120301405A1, “Simple Mechanical Procedure and Product for Deterring Substance Abuse” (priority 2005, published 2012).
# Like-named read-outs stand apart in the source and are kept apart here.
# Assays:
# [1] = system: benzodiazepine receptors; settings: for AED (Approximate Equivalent Dose): based on clinical experience
# [2] = for Time to Peak (onset of action, in hours): maximum levels of the drug in the blood after a given dose; for Elimination ½-Life (h) [active metabolite]: value in square brackets
# [3] = atypical benzodiazepine receptor ligands table
Compound,AED (Approximate Equivalent Dose) ([1]; benzodiazepine table) [mg],"Time to Peak (onset of action, in hours) [2]",Elimination ½-Life ([2]; parent drug) [h],further results
Cc1nnc2n1-c1ccc(Cl)cc1C(c1ccccc1)=NC2 [Alprazolam],0.5,1 to 2 h,6 to 12,–
CC(C)(C)OC(=O)c1ncn2c1[C@@H]1CCCN1C(=O)c1c(Br)cccc1-2 [Bretazenil],0.5,–,2.5,–
O=C1CN=C(c2ccccn2)c2cc(Br)ccc2N1 [Bromazepam],5 to 6,1 to 3 h,10 to 20,–
Cc1nnc2n1-c1sc(Br)cc1C(c1ccccc1Cl)=NC2 [Brotizolam],0.25,0.5-2^ hours,4 to 5,–
CNC1=Nc2ccc(Cl)cc2C(c2ccccc2)=[N+]([O-])C1 [Chlordiazepoxide],–,–,–,elimination half-life in the elderly compared to younger individuals ([2]; elderly vs younger individuals): twice as long
N#CCCN1C(=O)C(O)N=C(c2ccccc2F)c2cc(Cl)ccc21 (centres unmarked) [Cinolazepam],40,0.5-2^ hours,9,–
CN1C(=O)CC(=O)N(c2ccccc2)c2cc(Cl)ccc21 [Clobazam],–,–,–,"AED (Approximate Equivalent Dose) [1, 3]: 20 mg; Elimination ½-Life [2, 3]: 8 to 60 h"
O=C1CN=C(c2ccccc2Cl)c2cc([N+](=O)[O-])ccc2N1 [Clonazepam],0.5,1 to 4 h,18 to 50,–
O=C(O)C1N=C(c2ccccc2)c2cc(Cl)ccc2NC1=O (centres unmarked) [Clorazepate],15,variable,36 to 100,–
CCc1cc2c(s1)N(C)C(=O)CN=C2c1ccccc1Cl [Clotiazepam],5 to 10,1 to 3 h,6 to 18,–
O=C1CN2CCOC2(c2ccccc2Cl)c2cc(Cl)ccc2N1 (centres unmarked) [Cloxazolam],1,–,–,–
O=C1CN=C(c2ccccc2Cl)c2cc(Cl)ccc2N1 [Delorazepam],1,1 to 2 h,60 to 140,–
CN1C(=O)CN=C(c2ccccc2)c2cc(Cl)ccc21 [Diazepam],10,1 to 1.5 h,20 to 100,equivalent dose in an elderly individual on lorazepam versus what would be expected in a younger individual ([1]; elderly individual on lorazepam): up to half; Elimination ½-Life (h) [active metabolite] [2]: [36-200] h
Clc1ccc2c(c1)C(c1ccccc1)=NCc1nncn1-2 [Estazolam],1 to 2,1 to 5 h,10 to 24,–
CN1CCN(C(=O)O[C@H]2c3nccnc3C(=O)N2c2ccc(Cl)cn2)CC1 [Eszopiclone],–,–,–,"Elimination ½-Life [2, 3]: 6 h"
CCc1cc2c(s1)-n1c(C)nnc1CN=C2c1ccccc1Cl [Etizolam],1,1 to 2 h,6,–
CCOC(=O)c1ncn2c1CN(C)C(=O)c1cc(F)ccc1-2 [Flumazenil],–,–,–,"Elimination ½-Life [2, 3]: 1 h"
CN1C(=O)CN=C(c2ccccc2F)c2cc([N+](=O)[O-])ccc21 [Flunitrazepam],1,0.5-3^ hours,18 to 26,–
CCN(CC)CCN1C(=O)CN=C(c2ccccc2F)c2cc(Cl)ccc21 [Flurazepam],15 to 30,1 to 1.5 h,40 to 250,–
O=C1CN=C(c2ccccc2F)c2cc(Cl)ccc2N1CC1CC1 [Flutoprazepam],2 to 3,0.5-9^ hours,60 to 90,–
O=C1CN=C(c2ccccc2)c2cc(Cl)ccc2N1CC(F)(F)F [Halazepam],20 to 40,1 to 3 h,30 to 100,–

Compound,AED (Approximate Equivalent Dose) ([1]; benzodiazepine table) [mg],"Time to Peak (onset of action, in hours) [2]",Elimination ½-Life ([2]; parent drug) [h],further results
CC1=CC(=O)N2CC(=O)N(C)c3ccc(Cl)cc3C2(c2ccccc2)O1 (centres unmarked) [Ketazolam],15 to 30,2.5-3^ hours,30 to 100,Elimination ½-Life (h) [active metabolite] [2]: [36-200] h
CN1CCN(/C=C2\N=C3CN=C(c4ccccc4Cl)c4cc([N+](=O)[O-])ccc4N3C2=O)CC1 [Loprazolam],1 to 2,0.5-4^ hours,6 to 12,–
O=C1Nc2ccc(Cl)cc2C(c2ccccc2Cl)=NC1O (centres unmarked) [Lorazepam],1,2 to 4 h,10 to 20,–
CN1C(=O)C(O)N=C(c2ccccc2Cl)c2cc(Cl)ccc21 (centres unmarked) [Lormetazepam],1 to 2,0.5-2^ hours,10 to 12,–
CN1CCN=C(c2ccccc2)c2cc(Cl)ccc21 [Medazepam],10,–,36 to 200,–
Cc1ncc2n1-c1ccc(Cl)cc1C(c1ccccc1F)=NC2 [Midazolam],5 to 8,0.5-1^ hours,–,–
CN1C(=O)CN=C(c2ccccc2)c2cc([N+](=O)[O-])ccc21 [Nimetazepam],5,0.5-3^ hours,14 to 30,–
O=C1CN=C(c2ccccc2)c2cc([N+](=O)[O-])ccc2N1 [Nitrazepam],10,0.5-7^ hours,15 to 38,–
O=C1CN=C(c2ccccc2)c2cc(Cl)ccc2N1 [Nordazepam],10,–,50 to 120,–
O=C1Nc2ccc(Cl)cc2C(c2ccccc2)=NC1O (centres unmarked) [Oxazepam],–,3 to 4 h,4 to 15,–
O=C1CN=C(c2ccccc2Cl)c2cc(Br)ccc2N1 [Phenazepam],1,1.5-4^ hours,60,–
C#CCN1C(=O)CN=C(c2ccccc2)c2cc(Cl)ccc21 [Pinazepam],20,–,40 to 100,–
O=C1CN=C(c2ccccc2)c2cc(Cl)ccc2N1CC1CC1 [Prazepam],20,2 to 6 h,36 to 200,–
Cc1c2c(cn1C)NC(=O)CN=C2c1ccccc1 [Premazepam],3.75,2 to 6 h,10 to 13,–
Fc1ccccc1C1=NCC(=S)N(CC(F)(F)F)c2ccc(Cl)cc21 [Quazepam],20,1 to 5 h,39 to 120,–
CN1C(=O)C(O)N=C(c2ccccc2)c2cc(Cl)ccc21 (centres unmarked) [Temazepam],20,0.5-3^ hours,8 to 22,–
CN1C(=O)CN=C(C2=CCCCC2)c2cc(Cl)ccc21 [Tetrazepam],100,1 to 3 h,3 to 26,–
Cc1nnc2n1-c1ccc(Cl)cc1C(c1ccccc1Cl)=NC2 [Triazolam],0.25,0.5-2^ hours,2,–
CCN(C(C)=O)c1cccc(-c2ccnc3c(C#N)cnn23)c1 [Zaleplon],–,–,–,"AED (Approximate Equivalent Dose) [1, 3]: 20 mg"
Cc1ccc(-c2nc3ccc(C)cn3c2CC(=O)N(C)C)cc1 [Zolpidem],–,–,–,"AED (Approximate Equivalent Dose) [1, 3]: 20 mg; Elimination ½-Life [2, 3]: 2.6 h"
CN1CCN(C(=O)OC2c3nccnc3C(=O)N2c2ccc(Cl)cn2)CC1 (centres unmarked) [Zopiclone],–,–,–,"AED (Approximate Equivalent Dose) [1, 3]: 15 mg; Elimination ½-Life [2, 3]: 4 to 6 h"
